# Patent US7674831B2, “Heterocyclic compounds as sweetener enhancers” (Redpoint Bio Corporation, priority 2006, dated 2010)
# Tests used:
# Assay type in all cases: cell-based
# [1] = tested on: membrane potential response (non-specific ion channel blockers or enhancers); experiment: KCl counterscreen (membrane potential response, 10 mM KCl instead of ATP); details: Homo sapiens, 10 μM compound, read-out: KCl Counterscreen (percent inhibition)
# Protocol: (§1) Two counterscreen assays were run on separate cell plates utilizing the same cells as described above. In the calcium counterscreen, the cells were loaded with a calcium sensitive dye (Calcium3 Dye, Part no. 8090, Molecular Devices Corp.) and stimulated by ATP to check for compounds that block the GPCR-mediated calcium activation step. Exemplary results of this assay are shown in the lower left graph of FIG. 3. In the KCl counterscreen, cells are stimulated with 10 mM KCl instead of ATP to check for compounds that inhibit the membrane potential response by virtue of being non-specific ion channel blockers or enhancers.
# human TRPM5 [2] = molecular target: T1, human TRPM5 (Homo sapiens, UniProt Q9NZQ8); experiment: TRPM5 membrane potential dye FLIPR assay in hTRPM5-HEK293 cells, ATP stimulated; details: for inhibition at 10 µM: 10 μM compound, 3 μM ATP, read-out: TRPM5 Activity (percent inhibition; enhancement is negative inhibition)
# T1 construct: expressed in transfected cells
# T1 sequence (Q9NZQ8 1-1165): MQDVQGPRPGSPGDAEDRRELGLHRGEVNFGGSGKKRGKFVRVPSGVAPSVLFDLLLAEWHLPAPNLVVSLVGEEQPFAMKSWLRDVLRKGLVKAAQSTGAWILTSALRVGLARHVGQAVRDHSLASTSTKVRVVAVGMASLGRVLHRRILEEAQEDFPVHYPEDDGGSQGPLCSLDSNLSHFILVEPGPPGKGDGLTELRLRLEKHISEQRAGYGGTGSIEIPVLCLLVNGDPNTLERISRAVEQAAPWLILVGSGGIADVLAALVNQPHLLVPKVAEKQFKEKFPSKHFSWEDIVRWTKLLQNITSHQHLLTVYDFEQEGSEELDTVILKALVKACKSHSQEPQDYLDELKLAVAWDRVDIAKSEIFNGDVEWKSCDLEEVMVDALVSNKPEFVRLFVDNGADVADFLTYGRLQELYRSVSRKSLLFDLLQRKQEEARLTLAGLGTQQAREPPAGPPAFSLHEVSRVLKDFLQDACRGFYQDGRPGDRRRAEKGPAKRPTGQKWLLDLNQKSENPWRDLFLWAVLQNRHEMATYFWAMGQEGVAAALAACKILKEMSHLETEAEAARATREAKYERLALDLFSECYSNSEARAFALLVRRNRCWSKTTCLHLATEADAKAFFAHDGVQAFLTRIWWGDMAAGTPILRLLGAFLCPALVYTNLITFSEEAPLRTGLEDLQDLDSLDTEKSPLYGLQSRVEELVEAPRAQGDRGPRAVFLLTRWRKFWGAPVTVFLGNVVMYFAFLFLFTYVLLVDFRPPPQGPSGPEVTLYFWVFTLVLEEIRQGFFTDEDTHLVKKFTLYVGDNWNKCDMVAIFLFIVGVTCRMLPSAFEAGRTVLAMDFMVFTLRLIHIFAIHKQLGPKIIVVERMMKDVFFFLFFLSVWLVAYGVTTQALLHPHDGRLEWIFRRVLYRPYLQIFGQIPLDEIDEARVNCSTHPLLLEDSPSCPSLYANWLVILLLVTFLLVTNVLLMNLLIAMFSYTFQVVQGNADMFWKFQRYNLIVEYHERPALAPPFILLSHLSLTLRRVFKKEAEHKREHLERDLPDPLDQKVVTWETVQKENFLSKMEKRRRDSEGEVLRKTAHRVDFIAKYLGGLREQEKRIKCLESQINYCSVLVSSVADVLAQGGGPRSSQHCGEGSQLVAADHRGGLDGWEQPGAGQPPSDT
# Protocol: The activity of human TRPM5 ion channel was measured in live cells on a fluorescent imaging plate reader (FLIPR). The basis of the assay (shown in FIG. 1) is the calcium-dependent activation of the ion channel which occurs via by activation of a G-protein coupled receptor (GPCR). GPCR activation by an appropriate agonist causes a transient increase in […] Ca^2+ ion concentration which in turn causes the ion channel to open, letting in Na^+ ions. This influx causes a change in the membrane potential of the cell which can be monitored as a change in the fluorescent signal from voltage-dependent (membrane potential) fluorescent dyes.
# For the screening assay, the human TRPM5 gene was cloned, put into HEK293 cells, and a stable, high expression clone was used for screening. Cells were grown in standard media at 37° C. The day before screening, the cells were removed from flasks and added to 384 well clear bottom plates (8K cells in 20 μL/well). On the assay day, 20 μL of membrane potential dye (Part No. R8123, Molecular Devices Corp.) was added to the cells and dye was allowed to be taken up, i.e., load, into the cells for 1 hr at 37° C. […] The assay was started by addition of 10 μL of solution from the compound plate into the cell plate. During this process, continuous fluorescent recordings were made simultaneously for all wells. After addition of the compound solution, the tips were automatically washed and a stimulation solution of 3 μM ATP to activate TRPM5 (an agonist for an endogenous purinurgic GPCR), was added to all wells of the cell plate. The height of the response was calculated and percent inhibition or enhancement values, versus negative control wells, was calculated for the test samples. Exemplary results are shown in the upper left graph of FIG. 3.
# [3] = tested on: GPCR-mediated calcium activation step; experiment: Calcium counterscreen (calcium sensitive dye, ATP stimulated); details: Homo sapiens, 10 μM compound, read-out: Calcium Counterscreen (percent inhibition)
# Protocol: as §1
# human TRPM5 [4] = molecular target: T1, human TRPM5; experiment: Whole-cell electrophysiological recording of TRPM5 current; details: 10 μM compound
# Protocol: Standard whole-cell recordings were obtained from […] cells stably transfected with human TRPM5. Internal solution contained 135 mM CsGlutamate, 10 mM HEPES, 2 mM MgATP, 5 mM CaCl2 and 10 mM EGTA. External solution was HBSS (Gibco) buffered with 20 mM HEPES to pH 7.2. Currents were recorded with Multiclamp 700B amplifier using PClamp software; filtered at 1 kHz, sampled at 5 kHz. Holding potential was −80 mV. TRPM5 current in a single was activated by intracellular calcium dialysis (free calcium) and sampled with 200 ms ramps from −80 to 80 mV at 1 Hz. Current amplitudes were measured at −80 and 80 mV and plotted versus time. […] In essence, it appears that the compound makes the TRPM5 responsive lower or weaker Ca++ signals than is normally the case.
# [5] = tested on: non-transfected, sham HEK cells; experiment: Whole-cell electrophysiological recording in sham cells
SMILES,inhibition at 10 µM (human TRPM5 [2]),"effect on TRPM5 activity (FIG. 3) (human TRPM5 [2]; 1, 3, 10 and 30 μM compound)",TRPM5 current stimulation by compound (human TRPM5 [4]; 30 μm calcium),"TRPM5 current in response to compound (human TRPM5 [4]; +80 mV, calcium 300 nm)",TRPM5 current activation by compound (human TRPM5 [4]; absence of calcium),inhibition at 10 µM [1],inhibition at 10 µM [3],current in sham cells [5]
"CCOC(=O)C/N=c1\sc2ccccc2n1C [Example 1, Ethyl 2-(3-Methylbenzo[d]thiazol-2(3H)-ylideneamino)acetate]",-139%,,,,,10%,-18%,
"COc1ccccc1OCCSc1nc2ccccc2[nH]1 [Example 2, 2-(2-(2-Methoxyphenoxy)ethylthio)-1H-benzimidazole]",-136%,,,,,-3%,19%,
COC(=O)c1sccc1Oc1ccc([N+](=O)[O-])cn1 [Example 3],-113%,,,,,17%,11%,
"CCc1nnc2nc(-c3ccc(Cl)c([N+](=O)[O-])c3)[nH]n12 [Example 4, 6-(4-Chloro-3-nitrophenyl)-3-ethyl-5H-[1,2,4]triazolo[4,3-b][1,2,4]triazole]",-101%,,,,,-32%,13%,
"Cc1ccc(-c2cn3ncsc3n2)cc1 [Example 5, 6-p-Tolylimidazo[2,1-b][1,3,4]thiadiazole]",-100%,,,,,7%,23%,
"O=C(Nc1ccccc1)N1CCCN(c2nc(-c3ccccc3)ns2)CC1 [Example 6, N-Phenyl-4-(3-phenyl-1,2,4-thiadiazol-5-yl)-1,4-diazepane-1-carboxamide]",-98%,,,,,16%,-69%,
"COc1cccc(OC)c1OCCSc1nc2ccccc2n1CCO [Example 7, 2-(2-(2-(2,6-Dimethoxyphenoxy)ethylthio)-1H-benzimidazol-1-yl)ethanol]",-95%,,,,,-4%,-15%,
"CCn1c(C)nc([N+](=O)[O-])c1Sc1ccc(Cl)cn1 [Example 8, 1-Ethyl-2-methyl-4-nitro-5-(5-chloropyridin-2-ylthio)imidazole]",-76%,selective enhancement,,,,7%,-22%,

# Second part, led by results:
inhibition at 10 µM (human TRPM5 [2]),"effect on TRPM5 activity (FIG. 3) (human TRPM5 [2]; 1, 3, 10 and 30 μM compound)",TRPM5 current stimulation by compound (human TRPM5 [4]; 30 μm calcium),"TRPM5 current in response to compound (human TRPM5 [4]; +80 mV, calcium 300 nm)",TRPM5 current activation by compound (human TRPM5 [4]; absence of calcium),SMILES,inhibition at 10 µM [1],inhibition at 10 µM [3],current in sham cells [5]
-73%,,,,,"CC1(C)C(c2ccccc2)=NC(c2ccccc2)=[N+]1[O-] [Example 9, 2,4-Diphenyl-5,5-dimethylimidazole-1-oxide]",17%,-15%,
-73%,,further stimulation,> 5 nA,no current activation,"C=CCNC(=S)/N=c1\sc2ccccc2n1C [Example 10, 1-Allyl-3-(3-methylbenzo[d]thiazol-2-(3H)-ylidene)thiourea]",1%,0%,no significant current
-68%,,,,,"N=c1sccn1CC(=O)c1cccc([N+](=O)[O-])c1 [Example 11, 2-(2-Iminothiazol-3(2H)-yl)-1-(3-nitrophenyl)ethanone]",21%,-12%,
-62%,,,,,Cc1csc(-c2cn(C(C)C)c(=O)n(Cc3ccccc3)c2=O)n1 [Example 12],3%,-5%,
-57%,,,,,"COc1c(Cl)cccc1-c1cn2ccccc2n1 [Example 13, 2-(3-Chloro-2-methoxyphenyl)imidazo[1,2-a]pyridine]",-10%,9%,
-55%,,,,,"CCc1ccc(-c2csc(NC(=O)c3cc(OC)cc(OC)c3)n2)cc1 [Example 14, N-(4-(4-Ethylphenyl)thiazol-2-yl)-3,5-dimethoxybenzamide]",-101%,10%,
-48%,,,,,"O=c1sc2ccccc2c2c1ncn2-c1ccccc1 [Example 15, 1-Phenylthiochromeno[4,3-d]imidazol-4(1H)-one]",-9%,-22%,
-23%,,,,,"CN(C)CC(=O)Nc1nc(-c2ccc(Cl)cc2)cs1 [Example 16, N-(4-(4-Chlorophenyl)thiazol-2-yl)-2-(dimethylamino)acetamide]",-9%,-25%,
-16%,,,,,"Cn1nc(C(F)(F)F)c(C(=O)Nc2ccc(C(F)(F)F)cc2)c1Cl [Example 17, 5-Chloro-1-methyl-3-(trifluoromethyl)-N-(4-(trifluoromethyl)phenyl)-1H-pyrazole-4-carboxamide]",-25%,4%,
